Active and inactive are the calls of the source. The calls are words filed in the database; no cut-off is given here.
What was measured:
CAPAN-1 = assay: Antiproliferative activity against human CAPAN-1 cells assessed as inhibition of cell proliferation measured after 72 hrs by MTT assay; type: functional, cell-based; settings: CAPAN-1, 72 h
TERT-RPE1 = assay: Cytotoxicity against human TERT-RPE1 cells assessed as inhibition of cell proliferation measured after 72 hrs by MTT assay; type: cell-based; settings: RPE-1, 72 h
K562 = assay: Antiproliferative activity against human K562 cells assessed as inhibition of cell proliferation measured after 72 hrs by MTT assay; type: functional, cell-based; settings: K562, 72 h
NCI-H460 = assay: Antiproliferative activity against human NCI-H460 cells assessed as inhibition of cell proliferation measured after 72 hrs by MTT assay; type: functional, cell-based; settings: NCI-H460, 72 h
HCT-116 [1] = assay: Antiproliferative activity against human HCT-116 cells assessed as inhibition of cell proliferation measured after 72 hrs by MTT assay; type: functional, cell-based; settings: HCT-116, 72 h
HL-60 = assay: Antiproliferative activity against human HL-60 cells assessed as inhibition of cell proliferation measured after 72 hrs by MTT assay; type: functional, cell-based; settings: HL-60, 72 h
[2] = Antiproliferative activity against P-gp-positive/doxorubicin-resistant human K562/4 cells assessed as inhibition of cell proliferation measured after 72 hrs by MTT assay; type: functional; settings: K562/4, 72 h
[3] = Resistance index, ratio of IC50 for human P-gp-positive/Doxorubicin-resistant K562/4 cells to IC50 for human K562 cells; type: functional
HCT-116 [4] = assay: Antiproliferative activity against human HCT-116 cells with inactivated p53 gene assessed as inhibition of cell proliferation measured after 72 hrs by MTT assay; type: functional, cell-based; settings: HCT-116, 72 h
[5] = Drug uptake in mouse NIH3T3 cells assessed as compound localization in nucleus at 1 uM measured after 15 mins by laser scanning microscope; type: ADME, subcellular; settings: nih3t3, 0.25 h
Calf thymus DNA [6] = assay: Binding affinity to calf thymus DNA assessed as DNA intercalation by measuring decrease of negative DNA band at 245 nm at 50 uM by circular dichroism spectral analysis; type: tissue-based; settings: Bos taurus
Calf thymus DNA [7] = assay: Binding affinity to calf thymus DNA assessed as stoichiometry ratio of compound-DNA complex formation by scatchard plot analysis; settings: Bos taurus
Calf thymus DNA [8] = assay: Binding affinity to calf thymus DNA assessed as dissociation constant by scatchard plot analysis; set-up: species or system Bos taurus
Calf thymus DNA [9] = assay: Binding affinity to calf thymus DNA assessed as binding constant by scatchard plot analysis; settings: Bos taurus
Calf thymus DNA [10] = assay: Binding affinity to calf thymus double stranded DNA at 10 uM measured after 5 mins by flourescence spectroscopy method; settings: Bos taurus
P388 [11] = assay: Antitumour activity against mouse P388 cells xenografted intraperitoneally in BDF1 mouse assessed as […] T/C ratio at 20 mg/kg, ip administered qd for 5 days (reference value: 100%); type: functional; settings: dose 20 mg/kg/day; time 5 day
P388 [12] = assay: Antitumour activity against mouse P388 cells xenografted intraperitoneally in BDF1 mouse assessed as mean life span time at 20 mg/kg, ip administered qd for 5 days (reference value: 11.5 +/-0.9 days); type: functional; settings: dose 20 mg/kg/day; time 5 day

IC50 (K562) [µM] | IC50 (NCI-H460) [µM] | IC50 (HCT-116 [1]) [µM] | IC50 (HL-60) [µM] | IC50 (HCT-116 [4]) [µM] | Drug uptake [5] | Compound | IC50 (CAPAN-1) [µM] | IC50 (TERT-RPE1) [µM] | IC50 [2] [µM] | Ratio IC50 [3] | Activity (Calf thymus DNA [6]) | Ratio (Calf thymus DNA [7]) | Kd (Calf thymus DNA [8]) [µM] | Kb (Calf thymus DNA [9]) | Activity (Calf thymus DNA [10]) | T/C (P388 [11]) [%] | Time (P388 [12]) [days]
3.2 | 1 | 1 | 1.8 | – | – | Cc1[nH]c2c(O)c3c(c(O)c2c1C(=O)NC1CCCNC1)C(=O)c1ccccc1C3=O (configuration not stated) | 0.4 | 12.5 | – | – | – | – | – | – | – | – | –
1.7 | 2.1 | 2.3 | 1.1 | 2.5 | – | CCn1c(C)c(C(=O)N2CC[C@H](N)C2)c2c(O)c3c(c(O)c21)C(=O)c1ccccc1C3=O | 1.2 | 13.6 | 28 | 16.5 | – | – | – | – | – | – | –
13.4 | 20 | 17.1 | 13.3 | – | – | Cc1c(C(=O)N2CC[C@H](N)C2)c2c(O)c3c(c(O)c2n1CC(=O)O)C(=O)c1ccccc1C3=O | 14.3 | > 20 | – | – | – | – | – | – | – | – | –
0.7 | 1.4 | 0.9 | 3.9 | – | – | O=C1c2ccccc2C(=O)c2c1c(O)c1scc(C(=O)N[C@H]3CCNC3)c1c2O | 2.8 | 14.9 | – | – | – | – | – | – | – | – | –
1.3 | 4.3 | 0.8 | 3 | – | – | NC1CCCN(C(=O)c2csc3c(O)c4c(c(O)c23)C(=O)c2ccccc2C4=O)C1 (racemic) | 1.1 | 7.9 | – | – | – | – | – | – | – | – | –
1.3 | 12.7 | 4 | 4.7 | 3.8 | – | N[C@@H]1CN(C(=O)c2csc3c(O)c4c(c(O)c23)C(=O)c2ccccc2C4=O)C[C@H]1N | 2.6 | 9.1 | 14.5 | 11.2 | – | – | – | – | – | – | –
– | 0.4 | – | – | – | Active | COc1cccc2c1C(=O)c1c(O)c3c(c(O)c1C2=O)C[C@@](O)(C(=O)CO)C[C@@H]3O[C@H]1C[C@H](N)[C@H](O)[C@H](C)O1 [DOXORUBICIN] | 1.7 | 1 | 5.5 | – | – | – | – | – | – | – | –
0.4 | 1.1 | 1.5 | 0.2 | – | – | Cc1[nH]c2c(O)c3c(c(O)c2c1C(=O)NC1CCNCC1)C(=O)c1ccccc1C3=O | 0.3 | 11.8 | – | – | – | – | – | – | – | – | –
1.2 | 16.3 | 1.8 | 0.7 | 3.2 | – | Cc1c(C(=O)N2CC[C@H](N)C2)c2c(O)c3c(c(O)c2n1C)C(=O)c1ccccc1C3=O | 1.1 | 16.1 | 25 | 19.2 | Active | 3 | 1.3 | 7.5 10^5/M | Active | – | –
1.2 | 0.8 | 2 | 4.1 | – | – | N[C@@H]1CCN(C(=O)c2csc3c(O)c4c(c(O)c23)C(=O)c2ccccc2C4=O)C1 | 2 | 12.6 | – | – | – | – | – | – | – | – | –
1.2 | 14.3 | 2.2 | 1.3 | 2 | – | CCCn1c(C)c(C(=O)N2CC[C@H](N)C2)c2c(O)c3c(c(O)c21)C(=O)c1ccccc1C3=O | 4.5 | 17.1 | 7 | 5.8 | – | – | – | – | – | – | –
0.8 | 4.4 | 2.3 | 1 | – | – | Cc1[nH]c2c(O)c3c(c(O)c2c1C(=O)N[C@@H]1CCNC1)C(=O)c1ccccc1C3=O | 1 | 14.7 | – | – | – | – | – | – | – | – | –
0.4 | 2.6 | 2 | 0.2 | – | – | Cc1[nH]c2c(O)c3c(c(O)c2c1C(=O)N1CCCC(N)C1)C(=O)c1ccccc1C3=O (configuration not stated) | 1.1 | 16.5 | – | – | – | – | – | – | – | – | –
0.5 | 2 | 0.8 | 4.6 | – | – | O=C1c2ccccc2C(=O)c2c1c(O)c1scc(C(=O)N[C@@H]3CCNC3)c1c2O | 2.2 | 15.5 | – | – | – | – | – | – | – | – | –
0.7 | 5.3 | 1.8 | 1 | – | – | Cc1[nH]c2c(O)c3c(c(O)c2c1C(=O)N[C@H]1CCNC1)C(=O)c1ccccc1C3=O | 1 | 17.1 | – | – | – | – | – | – | – | – | –
2 | 1.7 | 1.9 | 0.9 | – | – | NC1CCN(C(=O)c2csc3c(O)c4c(c(O)c23)C(=O)c2ccccc2C4=O)CC1 | 0.3 | 15.7 | – | – | – | – | – | – | – | – | –
2.2 | 16.4 | 16.9 | 3.4 | – | – | CC(=O)Cn1c(C)c(C(=O)N2CC[C@H](N)C2)c2c(O)c3c(c(O)c21)C(=O)c1ccccc1C3=O | 13.4 | > 20 | – | – | – | – | – | – | – | – | –
2.4 | 11.4 | 4.8 | 3.1 | 7 | – | Cc1[nH]c2c(O)c3c(c(O)c2c1C(=O)N1C[C@@H](N)[C@H](N)C1)C(=O)c1ccccc1C3=O | 8.7 | > 20 | > 50 | >20.8 | – | – | – | – | – | – | –
2.3 | 2.9 | 1.4 | 0.8 | – | – | Cc1[nH]c2c(O)c3c(c(O)c2c1C(=O)N1CCC(N)CC1)C(=O)c1ccccc1C3=O | 1.7 | 14.2 | – | – | – | – | – | – | – | – | –
1.5 | 1.2 | 1.7 | 1.6 | – | – | O=C1c2ccccc2C(=O)c2c1c(O)c1scc(C(=O)NC3CCNCC3)c1c2O | 1.2 | 5.8 | – | – | – | – | – | – | – | – | –
6.8 | 2.7 | 3.2 | 2.6 | – | – | O=C1c2ccccc2C(=O)c2c1c(O)c1scc(C(=O)NC3CCCNC3)c1c2O (racemic) | 1.2 | 6.8 | – | – | – | – | – | – | – | – | –

Compound | IC50 (K562) [µM] | IC50 (NCI-H460) [µM] | IC50 (HCT-116 [1]) [µM] | IC50 (HL-60) [µM] | IC50 (HCT-116 [4]) [µM] | Drug uptake [5] | IC50 (CAPAN-1) [µM] | IC50 (TERT-RPE1) [µM] | IC50 [2] [µM] | Ratio IC50 [3] | Activity (Calf thymus DNA [6]) | Ratio (Calf thymus DNA [7]) | Kd (Calf thymus DNA [8]) [µM] | Kb (Calf thymus DNA [9]) | Activity (Calf thymus DNA [10]) | T/C (P388 [11]) [%] | Time (P388 [12]) [days]
Cc1c(C(=O)N2CC[C@H](N)C2)c2c(O)c3c(c(O)c2n1Cc1ccccc1)C(=O)c1ccccc1C3=O | 0.7 | 5.4 | 1.8 | 1.1 | 1.8 | – | 1.6 | 14.7 | 5.5 | 7.9 | – | – | – | – | – | – | –
Cc1[nH]c2c(O)c3c(c(O)c2c1C(=O)N1CC[C@@H](N)C1)C(=O)c1ccccc1C3=O | 0.3 | 0.5 | 1.5 | 0.2 | – | – | 0.5 | 15.9 | – | – | – | – | – | – | – | 150 | 17.3

Reference: ChEMBL document CHEMBL4765331, “Amides of pyrrole- and thiophene-fused anthraquinone derivatives: A role of the heterocyclic core in antitumor properties” (Eur J Med Chem, 2020)
